According to US6852503B1, “Compositions and methods for utilizing mixed substrate solutions of luminols and dioxetanes” (Pierce Biotechnology, Inc., priority 2001, dated 2005):

Tests used:
[1] = target: alkaline phosphatase (Bos taurus, UniProt P19111); experiment: Effect of peroxidase enhancers on observed alkaline phosphatase activity in dioxetane formulation containing PBTBQ; type: biochemical; settings: for Response, Percent: 33.3 pg alkaline phosphatase, 30 minutes, net signal relative to control solution (CDP-Star plus Nitroblock II) set to 100%; for enhancement of the observed phosphatase activity: relative to control solution
Sequence of alkaline phosphatase (P19111 20-506 limits assumed): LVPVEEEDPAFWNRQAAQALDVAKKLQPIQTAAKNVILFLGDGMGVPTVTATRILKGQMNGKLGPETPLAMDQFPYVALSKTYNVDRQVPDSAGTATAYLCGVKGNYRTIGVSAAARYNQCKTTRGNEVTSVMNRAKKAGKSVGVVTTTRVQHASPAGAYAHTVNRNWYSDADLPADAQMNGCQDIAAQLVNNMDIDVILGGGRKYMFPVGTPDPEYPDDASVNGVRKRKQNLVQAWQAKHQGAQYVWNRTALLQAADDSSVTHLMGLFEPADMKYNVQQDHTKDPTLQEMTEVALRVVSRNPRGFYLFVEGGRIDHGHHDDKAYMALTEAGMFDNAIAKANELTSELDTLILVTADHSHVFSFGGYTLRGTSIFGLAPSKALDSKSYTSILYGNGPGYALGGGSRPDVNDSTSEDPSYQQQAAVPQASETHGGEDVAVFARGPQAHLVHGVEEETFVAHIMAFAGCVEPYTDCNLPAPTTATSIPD
Experimental: (§1) A variety of known enhancers of peroxidase activity were tested for their effect on the observed alkaline phosphatase activity in a dioxetane formulation containing the PBTBQ alkaline phosphatase enhancement agent. […] 10 μl of TBS served as a background control. 40 mM stock solutions as ws-PT, ws-PT-N-C4-S-C2Cl, and ws-PT Plus (CP-Br) were prepared in water. A 50 mM solution of DMAP was prepared in water. A 20 mM ws-PT Plus (MPA Cl) was prepared in water. 40 mM solutions of MPT and CPPT were prepared in methanol. (See Table 3 for acronym identification of these peroxidase enhancers, some of which are substantially water-soluble(ws).) The control solution was prepared by mixing 2.85 ml of CDP-Star RTU (Tropix Product No. MS100R) with 0.15 ml of NitroBlock II (Tropix Product No. LNX200). For the test solutions, 112 μl of the peroxidase enhancer stock solutions were added to 3 ml of the control solution in the case of the ws-PT, MPT, ws-PT-NC4S, ws-PT-Plus (CP-Br), or CPPT; for the ws-PT-Plus (MPS-C) 224 μl of the stock was added to 3 ml of the control solution; for the DMAP, 150 μl of the stock was added to 3 ml of the control solution; for the test solution containing DMAP and ws-PT, 150 μl of the DMAP stock and 112 μl of the ws-PT stock was added to 3 ml of the control solution.
To the wells of the microplate containing the alkaline phosphatase aliquots, the control and test formulations were added at 100 μl per well, mixed for approximately one minute, and allowed to react for 30 minutes at which time the chemiluminescent signal was measured on a Berthold EGG Luminometer using a 0.1 second integration time. Table 3 illustrates the relative signal intensities obtained using the response from the control solution set to 100%. The net signal of each solution (background subtracted) was used for these calculations. […] Consequently, the relative response factors for alkaline phosphatase and peroxidase activity to each other in the present invention can be modulated by the choice of the peroxidase enhancer used in the substrate solution formulation of this invention.

[2] = Visual appearance (flocculation) of test solutions; type: physicochemical; settings: enhancer stock added to CDP-Star RTU/NitroBlock II control solution
Experimental: as §1

Response, Percent [1]	enhancement of the observed phosphatase activity [1]	Compound	appearance of test solution [2]
104%		O=C(O)CCCN1c2ccccc2Sc2ccccc21 [CPPT, 4-(phenothiazin-10-yl)butanoic acid]	
198%	significant enhancement	CN1c2ccccc2Sc2ccccc21 [MPT, 10-methyl-10H-phenothiazine]	visible flocculation
85%		C[N+](C)(C)CCCN1c2ccccc2Sc2ccc(Cl)cc21.[Br-] [ws-PT Plus (CP—Br^−), [3-(2-chlorophenothiazin-10-yl)-propyl]trimethyl-ammonium bromide]	
70%		C[N+](C)(C)CCCN1c2ccccc2Sc2ccccc21.[Cl-] [ws-PT Plus (MPA^+Cl^−), Trimethyl-(3-phenothiazin-10-yl-propyl)ammonium chloride]	
218%	significant enhancement	O=S(=O)([O-])CCCCN1c2ccccc2Sc2ccc(Cl)cc21.[Na+] [ws-PT—N—C4S—C2—Cl, Sodium 4-(2-chlorophenothiazin-10-yl)butane-1-sulfonate]	

Compound	Response, Percent [1]	enhancement of the observed phosphatase activity [1]	appearance of test solution [2]
CNC.c1ccncc1 [DMAP, Dimethylamine pyridine]	99%		
O=S(=O)([O-])CCCN1c2ccccc2Sc2ccccc21.[Na+] [ws-PT, Sodium (3-phenothiazine-10-yl)-propane-1-sulfonate]	207%	significant enhancement	visible flocculation
